We go through four molecules from ChEMBL document CHEMBL1933021, “Novel and selective spiroindoline-based inhibitors of Sky kinase” (Bioorg Med Chem Lett, 2012).

Some results are limits rather than exact numbers.

The target of experiment [1] is Tyrosine-protein kinase ABL1 (Homo sapiens, UniProt P00519). The experiment can be described thus: Inhibition of Abl.
The target in experiment [2] is T1, Protein kinase C zeta type (Homo sapiens, UniProt Q05513).
T1 sequence (Q05513 whole entry): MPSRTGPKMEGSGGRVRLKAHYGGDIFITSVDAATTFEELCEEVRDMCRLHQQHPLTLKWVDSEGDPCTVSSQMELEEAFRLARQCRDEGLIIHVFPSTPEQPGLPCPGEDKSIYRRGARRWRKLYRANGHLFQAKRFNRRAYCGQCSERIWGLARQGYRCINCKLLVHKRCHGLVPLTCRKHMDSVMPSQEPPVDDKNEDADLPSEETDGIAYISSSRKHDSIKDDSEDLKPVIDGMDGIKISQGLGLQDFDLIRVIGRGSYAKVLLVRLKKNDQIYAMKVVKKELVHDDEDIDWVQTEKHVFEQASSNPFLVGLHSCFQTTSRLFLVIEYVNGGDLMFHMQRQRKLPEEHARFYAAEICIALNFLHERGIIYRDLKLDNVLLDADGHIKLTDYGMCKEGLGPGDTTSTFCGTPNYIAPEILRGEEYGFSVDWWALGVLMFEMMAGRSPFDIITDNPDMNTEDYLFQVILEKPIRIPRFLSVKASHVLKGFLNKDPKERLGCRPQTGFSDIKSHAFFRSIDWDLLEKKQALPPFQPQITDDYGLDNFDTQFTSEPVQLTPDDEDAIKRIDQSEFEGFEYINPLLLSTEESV
Briefly: Inhibition of PKCzeta.

The target in experiment [3] is T2, Serine/threonine-protein kinase Chk1 (Homo sapiens, UniProt O14757).
T2 sequence (O14757 whole entry): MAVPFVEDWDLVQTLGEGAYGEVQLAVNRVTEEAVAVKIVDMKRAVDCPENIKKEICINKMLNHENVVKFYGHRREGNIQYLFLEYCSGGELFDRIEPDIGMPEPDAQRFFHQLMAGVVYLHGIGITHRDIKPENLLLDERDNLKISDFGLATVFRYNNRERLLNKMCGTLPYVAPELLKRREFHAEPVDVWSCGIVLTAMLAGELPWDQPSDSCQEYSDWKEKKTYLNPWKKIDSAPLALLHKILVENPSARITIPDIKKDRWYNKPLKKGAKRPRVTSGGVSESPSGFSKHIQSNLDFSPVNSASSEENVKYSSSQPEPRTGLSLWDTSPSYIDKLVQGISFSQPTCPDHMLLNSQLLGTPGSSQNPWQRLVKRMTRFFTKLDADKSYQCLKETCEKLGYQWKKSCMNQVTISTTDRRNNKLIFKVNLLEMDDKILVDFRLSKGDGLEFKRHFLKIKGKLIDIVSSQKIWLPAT
Briefly: Inhibition of Chk1.

Experiment [4] can be described thus: Inhibition of CK2.
For experiment [5], the target named is T3, Inhibitor of nuclear factor kappa-B kinase subunit beta (Homo sapiens, UniProt O14920).
T3 sequence (O14920 whole entry): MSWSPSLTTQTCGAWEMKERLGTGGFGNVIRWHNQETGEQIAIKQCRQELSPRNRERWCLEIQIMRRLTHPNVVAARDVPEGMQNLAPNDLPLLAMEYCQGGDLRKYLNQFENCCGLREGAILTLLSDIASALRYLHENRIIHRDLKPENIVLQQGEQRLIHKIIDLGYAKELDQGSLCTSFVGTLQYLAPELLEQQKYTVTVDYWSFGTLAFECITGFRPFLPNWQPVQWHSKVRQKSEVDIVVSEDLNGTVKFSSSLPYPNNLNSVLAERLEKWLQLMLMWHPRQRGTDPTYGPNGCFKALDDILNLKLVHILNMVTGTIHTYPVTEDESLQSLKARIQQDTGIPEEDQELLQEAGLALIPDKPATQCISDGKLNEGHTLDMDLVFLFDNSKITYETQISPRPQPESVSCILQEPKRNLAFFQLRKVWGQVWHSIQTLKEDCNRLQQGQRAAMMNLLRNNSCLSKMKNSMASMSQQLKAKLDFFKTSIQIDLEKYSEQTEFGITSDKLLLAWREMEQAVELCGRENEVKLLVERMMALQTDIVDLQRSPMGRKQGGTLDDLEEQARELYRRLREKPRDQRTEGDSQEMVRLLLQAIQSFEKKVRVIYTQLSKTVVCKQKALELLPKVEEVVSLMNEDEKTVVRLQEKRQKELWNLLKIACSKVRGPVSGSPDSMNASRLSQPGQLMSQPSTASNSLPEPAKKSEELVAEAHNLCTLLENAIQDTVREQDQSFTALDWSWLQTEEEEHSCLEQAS
Briefly: Inhibition of IKK-beta.

Experiment [6] concerns the target T4, Inhibitor of nuclear factor kappa-B kinase subunit epsilon (Homo sapiens, UniProt Q14164).
T4 sequence (Q14164 whole entry): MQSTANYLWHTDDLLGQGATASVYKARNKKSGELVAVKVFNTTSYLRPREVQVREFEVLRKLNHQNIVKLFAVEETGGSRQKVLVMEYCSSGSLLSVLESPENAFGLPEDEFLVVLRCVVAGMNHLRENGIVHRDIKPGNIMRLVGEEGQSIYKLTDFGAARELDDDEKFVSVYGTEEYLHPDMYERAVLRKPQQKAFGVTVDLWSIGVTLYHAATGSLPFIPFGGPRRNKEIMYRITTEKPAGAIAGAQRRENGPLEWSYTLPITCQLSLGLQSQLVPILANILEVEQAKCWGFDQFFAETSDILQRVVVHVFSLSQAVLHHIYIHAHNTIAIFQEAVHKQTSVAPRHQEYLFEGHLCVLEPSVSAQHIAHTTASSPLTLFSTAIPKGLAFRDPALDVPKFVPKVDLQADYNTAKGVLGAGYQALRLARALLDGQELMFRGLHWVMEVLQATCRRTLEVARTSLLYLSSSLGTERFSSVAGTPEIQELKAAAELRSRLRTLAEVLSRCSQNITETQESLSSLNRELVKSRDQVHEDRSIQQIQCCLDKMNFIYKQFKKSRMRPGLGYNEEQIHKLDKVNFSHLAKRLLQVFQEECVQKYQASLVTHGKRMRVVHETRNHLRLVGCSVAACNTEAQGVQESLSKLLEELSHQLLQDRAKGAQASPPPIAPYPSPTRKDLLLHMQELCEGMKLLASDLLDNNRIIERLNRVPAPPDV
The experiment can be described thus: Inhibition of IKKi.

In experiment [7] the target is Serine/threonine-protein kinase pim-2 (Homo sapiens, UniProt Q9P1W9). The experiment can be described thus: Inhibition of Pim-2.
In experiment [8] the target is Proto-oncogene tyrosine-protein kinase Src (Homo sapiens, UniProt P12931). The experiment can be described thus: Inhibition of Src.
A short description of experiment [9]: Inhibition of PKA.
The target of experiment [10] is Casein kinase I isoform delta (Homo sapiens, UniProt P48730). Briefly: Inhibition of CK1delta.
Sequence of Casein kinase I isoform delta (P48730 whole entry, canonical isoform): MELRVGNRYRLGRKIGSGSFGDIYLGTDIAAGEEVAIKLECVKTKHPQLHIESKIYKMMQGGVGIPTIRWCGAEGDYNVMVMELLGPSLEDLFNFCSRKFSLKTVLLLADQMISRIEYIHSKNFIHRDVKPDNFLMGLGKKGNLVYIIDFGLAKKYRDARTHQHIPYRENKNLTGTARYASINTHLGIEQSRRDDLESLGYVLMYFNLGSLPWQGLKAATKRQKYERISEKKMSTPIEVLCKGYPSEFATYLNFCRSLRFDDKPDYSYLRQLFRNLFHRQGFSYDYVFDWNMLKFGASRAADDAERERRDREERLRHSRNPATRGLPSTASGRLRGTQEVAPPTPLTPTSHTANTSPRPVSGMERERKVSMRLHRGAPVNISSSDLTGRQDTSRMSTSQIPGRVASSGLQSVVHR

Sequence of Proto-oncogene tyrosine-protein kinase Src (P12931 2-536 limits assumed): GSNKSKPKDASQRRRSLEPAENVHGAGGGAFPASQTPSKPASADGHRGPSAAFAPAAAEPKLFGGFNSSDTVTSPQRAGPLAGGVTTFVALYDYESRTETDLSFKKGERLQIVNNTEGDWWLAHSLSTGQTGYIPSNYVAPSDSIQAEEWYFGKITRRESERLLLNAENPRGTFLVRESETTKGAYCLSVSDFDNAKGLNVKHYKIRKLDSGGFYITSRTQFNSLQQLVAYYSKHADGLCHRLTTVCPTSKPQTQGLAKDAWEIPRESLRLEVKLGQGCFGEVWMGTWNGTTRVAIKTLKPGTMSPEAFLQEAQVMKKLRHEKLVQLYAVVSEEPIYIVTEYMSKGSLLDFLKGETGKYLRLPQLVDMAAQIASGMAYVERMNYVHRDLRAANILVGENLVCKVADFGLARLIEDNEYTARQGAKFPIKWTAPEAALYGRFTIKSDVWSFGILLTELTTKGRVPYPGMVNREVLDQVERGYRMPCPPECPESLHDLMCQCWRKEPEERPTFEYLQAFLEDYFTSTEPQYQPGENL
Sequence of Serine/threonine-protein kinase pim-2 (Q9P1W9 whole entry): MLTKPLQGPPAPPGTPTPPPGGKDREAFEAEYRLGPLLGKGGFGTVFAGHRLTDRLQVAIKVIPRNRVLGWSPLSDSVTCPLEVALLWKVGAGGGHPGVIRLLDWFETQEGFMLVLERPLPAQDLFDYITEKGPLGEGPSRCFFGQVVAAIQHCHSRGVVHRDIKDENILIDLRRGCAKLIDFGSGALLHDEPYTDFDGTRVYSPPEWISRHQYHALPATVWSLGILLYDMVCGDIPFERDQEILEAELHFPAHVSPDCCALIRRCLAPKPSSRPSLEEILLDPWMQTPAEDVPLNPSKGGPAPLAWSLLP
Sequence of Tyrosine-protein kinase ABL1 (P00519 whole entry): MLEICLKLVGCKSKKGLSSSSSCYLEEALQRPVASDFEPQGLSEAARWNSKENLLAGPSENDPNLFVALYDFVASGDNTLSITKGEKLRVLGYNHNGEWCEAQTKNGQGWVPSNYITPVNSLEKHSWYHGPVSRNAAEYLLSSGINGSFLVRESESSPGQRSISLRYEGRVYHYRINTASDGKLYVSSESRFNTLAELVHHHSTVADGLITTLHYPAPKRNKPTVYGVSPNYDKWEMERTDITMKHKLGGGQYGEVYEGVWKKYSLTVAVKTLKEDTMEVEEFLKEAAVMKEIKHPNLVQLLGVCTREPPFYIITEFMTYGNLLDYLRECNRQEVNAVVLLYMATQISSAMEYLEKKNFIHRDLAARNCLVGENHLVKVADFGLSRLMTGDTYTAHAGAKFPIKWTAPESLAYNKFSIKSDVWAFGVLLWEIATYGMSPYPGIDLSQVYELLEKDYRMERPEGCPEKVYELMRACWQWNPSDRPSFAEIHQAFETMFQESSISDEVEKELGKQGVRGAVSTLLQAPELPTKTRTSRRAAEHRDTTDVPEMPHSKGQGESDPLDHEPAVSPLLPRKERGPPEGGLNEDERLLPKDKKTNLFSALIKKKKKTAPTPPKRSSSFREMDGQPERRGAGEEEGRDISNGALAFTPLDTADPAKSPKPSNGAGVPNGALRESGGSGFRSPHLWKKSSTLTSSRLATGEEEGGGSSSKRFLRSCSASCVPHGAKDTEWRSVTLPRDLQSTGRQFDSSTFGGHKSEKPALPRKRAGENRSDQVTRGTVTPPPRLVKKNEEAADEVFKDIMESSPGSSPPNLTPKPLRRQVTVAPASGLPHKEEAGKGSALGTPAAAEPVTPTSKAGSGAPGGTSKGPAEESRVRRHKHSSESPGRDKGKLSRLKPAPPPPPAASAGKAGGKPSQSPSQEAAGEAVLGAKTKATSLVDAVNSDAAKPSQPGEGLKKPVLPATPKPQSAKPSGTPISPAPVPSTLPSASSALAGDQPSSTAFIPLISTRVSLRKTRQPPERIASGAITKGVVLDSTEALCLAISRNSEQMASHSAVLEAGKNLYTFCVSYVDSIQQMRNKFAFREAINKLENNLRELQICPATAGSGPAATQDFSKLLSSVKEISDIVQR

By IC50 is commonly meant the concentration that inhibits the measured activity by half. Read a high IC50 as weaker potency. For `C[C@@H]1CCC(N2CC[C@]3(CN(C(=O)c4cc5ccc(F)cc5[nH]4)c4ccccc43)C2)CN1` (some centres undefined), the IC50 in [1], in experiment [2], in experiment [3], in [4], in experiment [5] and in [6] was > 30 µM each time. Further, the IC50 in [7] is > 30 µM; in experiment [8] it was > 30 µM; in [9], 28.6 µM; in [10] it was 1.73 µM.
With `O=C(c1cc2cc(F)ccc2[nH]1)N1C[C@]2(CCN(C3CCCNC3)C2)c2ccccc21` (some centres undefined), the IC50 in [1], in experiment [2], in experiment [3], in experiment [4], in experiment [5] and in experiment [6] was > 30 µM throughout. In addition, the 50% inhibitory concentration (IC50) in experiment [7], in experiment [8] and in experiment [9] was > 30 µM throughout.
Consider `C[C@@H]1CCC(N2CC[C@]3(CN(C(=O)c4cc5ccccc5[nH]4)c4ccccc43)C2)CN1` (some centres undefined), for which the IC50 in experiment [1], in experiment [2], in experiment [3], in experiment [4], in experiment [5] and in experiment [6] was > 30 µM throughout. For the same molecule, the IC50 in [7] was > 30 µM; in [8], > 30 µM; in experiment [9] it was > 30 µM; in experiment [10] it was 6.61 µM.
`O=C(c1cc2ccc(F)cc2[nH]1)N1C[C@]2(CCN(C3CCNC3)C2)c2ccccc21` (some centres undefined): the IC50 in experiment [1], in experiment [2], in experiment [3], in experiment [4], in experiment [5] and in [6] was > 30 µM throughout. For the same molecule, the IC50 in experiment [7] was > 30 µM; in experiment [8], > 30 µM; in experiment [9], > 30 µM; in [10] it was 11 µM.
